Measurements: PMC4498294, “Tetrahydroisoquinolines affect the whole-cell phenotype of Mycobacterium tuberculosis by inhibiting the ATP-dependent MurE ligase” (Journal of Antimicrobial Chemotherapy, 2015)
≈ marks a conversion by molar mass, not a printed value. Where “and” joins values, the source holds several entries; their conditions need not be identical. Equal values may be shown once. Read-outs that look alike come from different tables or passages of the source.

How the values were obtained:
[1] = test system: murine macrophage cell line RAW264.7; assay: Eukaryotic cell toxicity assay, RAW264.7; assay type: cell-based; details: Mus musculus
M. bovis BCG Pasteur = assay: microbe, parasite or virus in culture; assay type: cell-based; details: for MIC: Mycobacterium tuberculosis variant bovis BCG, BCG; for MIC M. bovis BCG: SPOTi, 2 weeks at 37°C
[2] = biological target: MurE (Rv2158c) protein of M. tuberculosis H37Rv (Mycobacterium tuberculosis, UniProt P9WJL3); assay: Mtb-MurE HPLC inhibition assay; assay type: biochemical; details: HPLC assay, 37°C 30 min
M. tuberculosis H37Rv = assay: SPOTi growth inhibition assay, M. tuberculosis H37Rv; assay type: cell-based; details: Mycobacterium tuberculosis, H37RV
R. equi RHA1 = assay: SPOTi assay, R. equi RHA1; assay type: cell-based, Rhodococcus equi; details: LB, 30°C 48 h
E. coli K12 = assay: SPOTi assay, E. coli; assay type: cell-based, Escherichia coli; details: LB, 37°C overnight
P. putida = assay: SPOTi assay, P. putida; assay type: cell-based, Pseudomonas putida; details: LB, 37°C overnight
[3] = RAW264.7, value in square brackets, read-out: GIC50 RAW264.7
[4] = murine macrophage cell line RAW264.7, read-out: GIC50 RAW264.7
[5] = 336 h, read-out: MIC M. bovis BCG, SPOTi, 2 weeks at 37°C
[6] = read-out: MIC M. bovis BCG, SPOTi, value in square brackets
[7] = RAW264.7, read-out: GIC50 RAW264.7
[8] = 336 h, SPOTi, 2 weeks at 37°C, read-out: MIC M. tuberculosis H37Rv
[9] = SPOTi, value in square brackets, read-out: MIC M. tuberculosis H37Rv

Sequence of MurE (Rv2158c) protein of M. tuberculosis H37Rv (P9WJL3 whole entry, looked up): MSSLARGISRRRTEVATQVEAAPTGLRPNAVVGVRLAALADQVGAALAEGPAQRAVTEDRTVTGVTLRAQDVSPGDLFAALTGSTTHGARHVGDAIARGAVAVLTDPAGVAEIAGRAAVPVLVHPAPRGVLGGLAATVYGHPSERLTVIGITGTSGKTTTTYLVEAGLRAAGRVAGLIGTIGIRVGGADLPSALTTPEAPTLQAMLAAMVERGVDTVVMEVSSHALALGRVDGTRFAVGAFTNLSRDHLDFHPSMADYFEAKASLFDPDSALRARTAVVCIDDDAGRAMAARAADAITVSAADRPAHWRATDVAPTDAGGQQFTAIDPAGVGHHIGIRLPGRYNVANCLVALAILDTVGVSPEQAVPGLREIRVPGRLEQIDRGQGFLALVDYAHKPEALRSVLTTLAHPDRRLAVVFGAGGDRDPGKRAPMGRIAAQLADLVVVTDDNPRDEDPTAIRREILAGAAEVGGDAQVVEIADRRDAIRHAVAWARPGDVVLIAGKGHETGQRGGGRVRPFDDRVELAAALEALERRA

| SMILES | IC50 [1, 3] [µM] | IC50 [1, 4] [µg/mL] | MIC (M. bovis BCG Pasteur; [5]) [µg/mL] | MIC (M. bovis BCG Pasteur; [6]) [µM] | further results |
| --- | --- | --- | --- | --- | --- |
| Oc1cccc(C2NCCc3cc(O)c(O)cc32)c1 (stereo not shown) [Compound 7] | 342 | 88 | > 100 | > 389 |  |
| OC[C@@H](O)[C@@H]1NCCc2cc(O)c(O)cc21 [Compound 14] | 377 | 85 | > 100 | > 444 |  |
| Oc1cc2c(cc1O)C(c1cccs1)NCC2 (stereo not shown) [Compound 9] |  |  | > 100 | > 404 | IC50 [1, 7]: 56 µg/mL and 226 µM |
| Oc1cc2c(cc1O)C(c1cncc3ccccc13)NCC2 (stereo not shown) [Compound 12] | > 855 | > 250 | > 100 | > 342 |  |
| Oc1cc2c(c(O)c1O)C(c1cccc3c1OCO3)NCC2 (stereo not shown) [Compound 33] | 18 | 5.5 | > 100 | > 332 | IC50 [2]: 148 µM |
| Nc1ccc2c(c1)CCNC2Cc1ccccc1 (stereo not shown) [Compound 15] | 789 | 188 | > 100 | > 420 |  |
| Oc1cc2c(cc1O)C(C1CCCCC1)NCC2 (stereo not shown) [Compound 23] | 182 | 45 | > 100 | > 404 | MIC (M. tuberculosis H37Rv; [8]): > 100 µg/mL; MIC (M. tuberculosis H37Rv; [9]): > 404 µM |
| CC(C)=CCC[C@H](C)CC1NCCc2cc(O)c(O)cc21 (stereo partly shown) [Compound 13] | > 864 | > 250 | > 60 | 346 | MIC M. bovis BCG (M. bovis BCG Pasteur): 100 µg/mL (≈ 346 µM) |
| CC1(C(=O)O)NCCc2cc(O)c(O)cc21 (stereo not shown) [Compound 22] | 797 | 178 | > 100 | > 448 |  |
| Oc1ccc2c(c1)CCNC2c1cccc2c1OCO2 (stereo not shown) [Compound 34] | 672 | 181 | > 100 | > 371 | IC50 [2]: > 1000 µM |
| Oc1cc2c(cc1O)C(Cc1ccccc1)NCC2 (stereo not shown) [Compound 3] | 313 | 81 | > 100 | > 392 |  |
| O=C(O)[C@@H]1Cc2cc(O)c(O)cc2[C@@H](Cc2ccccc2)N1 [Compound 11] | 291 | 87 | > 100 | > 334 |  |
| Oc1cc2c(cc1O)[C@@H](O)CNC2c1cccc2c1OCO2 (stereo partly shown) [Compound 30] | 295 | 89 | > 100 | > 332 |  |
| Oc1cc2c(cc1O)[C@@H](O)CN[C@H]2Cc1ccccc1 [Compound 10] |  |  | > 60 |  | IC50 [1, 7]: > 250 µg/mL and > 566 µM; MIC (M. bovis BCG Pasteur; 336 h, read-out: MIC M. bovis BCG, SPOTi, value in square brackets): 271 µM; MIC M. bovis BCG (M. bovis BCG Pasteur): 100 µg/mL (≈ 369 µM) |
| O=C(O)[C@@H]1Cc2cc(O)c(O)cc2C(Cc2ccc3c(c2)OCO3)N1 (stereo partly shown) [Compound 26] | 533 | 183 | > 100 | > 291 |  |
| Oc1cc2c(cc1O)C(c1ccccn1)NCC2 (stereo not shown) [Compound 4] | 248 | 60 | > 100 | > 413 |  |
| Oc1ccc(C2NCCc3cc(O)c(O)cc32)cc1 (stereo not shown) [Compound 6] | 358 | 92 | > 100 | > 389 |  |
| COc1ccc(C2NCCc3cc(O)c(O)cc32)cc1 (stereo not shown) [Compound 5] | 335 | 91 | > 100 | > 369 |  |

| SMILES | IC50 [1, 3] [µM] | IC50 [1, 4] [µg/mL] | MIC (M. bovis BCG Pasteur; [5]) [µg/mL] | MIC (M. bovis BCG Pasteur; [6]) [µM] | further results |
| --- | --- | --- | --- | --- | --- |
| Oc1ccc2c(c1)CCNC2Cc1ccccc1 (stereo not shown) [Compound 16] | 683 | 195 | > 60 | 418 | MIC M. bovis BCG (M. bovis BCG Pasteur): 100 µg/mL (≈ 418 µM) |
| Oc1cccc(CC2NCCc3cc(O)c(O)cc32)c1 (stereo not shown) [Compound 17] | 236 | 64 | > 100 | > 369 |  |
| COc1ccc(I)c2c1C(Cc1ccc3c(c1)OCO3)NCC2 (stereo not shown) [Compound 38] | 66 | 28 | 50 | 118 | IC50 [2]: < 111 µM; MIC (M. tuberculosis H37Rv; [8]): 30 µg/mL; MIC (M. tuberculosis H37Rv; [9]): 71 µM |
| Oc1cc2c(cc1O)C(c1cccc3c1OCO3)NCC2 (stereo not shown) [Compound 29] | 263 | 75 | > 100 | > 351 | IC50 [2]: 471 µM |
| COc1cc2c(c(O)c1OC)C[C@H]1c3c(cc4c(c3-2)OCO4)CCN1C [(S)-Leucoxine (1), (S)-Leucoxine] | 352 | 125 | 25 | 70 | IC50 [2]: 820 µM; MIC (M. tuberculosis H37Rv; [8]): 30 µg/mL; MIC (M. tuberculosis H37Rv; [9]): 84 µM |
| Oc1cc2c(cc1O)C(c1ccccc1O)NCC2 (stereo not shown) [Compound 8] | 338 | 87 | > 100 | > 389 |  |
| C[C@@H]1NC(Cc2ccc3c(c2)OCO3)c2ccc(O)cc2[C@H]1O (stereo partly shown) [Compound 25] | 578 | 181 | > 100 | > 319 |  |
| CN1C[C@H](O)c2cc(O)c(O)cc2[C@@H]1c1cccc2c1OCO2 [Compound 31] | 434 | 137 | > 100 | > 317 |  |
| NC[C@H]1O[C@H](O[C@H]2[C@H](O)[C@@H](O[C@H]3O[C@H](CO)[C@@H](O)[C@H](N)[C@H]3O)[C@H](N)C[C@@H]2N)[C@H](O)[C@@H](O)[C@@H]1O [Kanamycin, reference compound] |  |  |  |  | MIC R. equi RHA1 (R. equi RHA1): 1 µg/mL (≈ 2.06 µM); MIC E. coli K12 (E. coli K12): 1 µg/mL (≈ 2.06 µM); MIC P. putida (P. putida): 10 µg/mL (≈ 20.6 µM) |
| Oc1cc2c(cc1O)C(Cc1ccccc1Br)NCC2 (stereo not shown) [Compound 21] | 141 | 47 | > 100 | > 299 |  |
| COc1cc(CC2NCCc3cc(O)c(O)cc32)ccc1O (stereo not shown) [Compound 19] | 166 | 50 | > 100 | > 332 |  |
| COc1ccc(Br)c2c1C(Cc1ccc3c(c1)OCO3)NCC2 (stereo not shown) [Compound 37] | 80 | 30 | 30 | 53 | IC50 [2]: 165 µM; MIC (M. tuberculosis H37Rv; 336 h, read-out: MIC M. tuberculosis H37Rv, SPOTi, 2 weeks at 37°C): 40 µg/mL; MIC (M. tuberculosis H37Rv; [9]): 106 µM; MIC M. bovis BCG (M. bovis BCG Pasteur): 20 µg/mL (≈ 53.2 µM) |
| COc1ccc(CC2NCCc3cc(O)c(O)cc32)cc1OC (stereo not shown) [Compound 18] | 178 | 56 | > 100 | > 317 |  |
| Oc1ccc(CC2NCCc3cc(O)c(O)cc32)cc1 (stereo not shown) [Norcoclaurine (2), Norcoclaurine] | 1570 | 425 | > 100 | > 369 | IC50 [2]: 837 µM |
| COc1cccc2c1C(Cc1ccc3c(c1)OCO3)NCC2 (stereo not shown) [Compound 40] | 740 | 220 | > 50 | > 168 | IC50 [2]: 300 µM; MIC (M. tuberculosis H37Rv; [8]): > 100 µg/mL; MIC (M. tuberculosis H37Rv; [9]): > 336 µM |
| CN1C[C@H](O)c2cc(O)c(O)cc2[C@H]1c1cccc2c1OCO2 [Compound 32] | 574 | 181 | > 100 | > 317 |  |
| Oc1ccc2c(c1)CCNC2Cc1ccc2c(c1)OCO2 (stereo not shown) [Compound 27] | 529 | 150 | 100 | 353 | IC50 [2]: > 1000 µM |
